Reference: ChEMBL document CHEMBL5543083, “3,5-Disubstituted-thiazolidine-2,4-dione hybrids as antidiabetic agents: Design, synthesis, in-vitro and In vivo evaluation” (Eur J Med Chem, 2024)
Converted amounts (≈) assume the structure as drawn. The source made the active and inactive calls. No cut-off for these calls is given here.

Assays:
[1] = molecular target: T1, Alpha amylase (Homo sapiens, UniProt P0DUB6); experiment: Inhibition of Alpha-amylase (unknown origin); type: protein assay
T1 sequence (P0DUB6 whole entry): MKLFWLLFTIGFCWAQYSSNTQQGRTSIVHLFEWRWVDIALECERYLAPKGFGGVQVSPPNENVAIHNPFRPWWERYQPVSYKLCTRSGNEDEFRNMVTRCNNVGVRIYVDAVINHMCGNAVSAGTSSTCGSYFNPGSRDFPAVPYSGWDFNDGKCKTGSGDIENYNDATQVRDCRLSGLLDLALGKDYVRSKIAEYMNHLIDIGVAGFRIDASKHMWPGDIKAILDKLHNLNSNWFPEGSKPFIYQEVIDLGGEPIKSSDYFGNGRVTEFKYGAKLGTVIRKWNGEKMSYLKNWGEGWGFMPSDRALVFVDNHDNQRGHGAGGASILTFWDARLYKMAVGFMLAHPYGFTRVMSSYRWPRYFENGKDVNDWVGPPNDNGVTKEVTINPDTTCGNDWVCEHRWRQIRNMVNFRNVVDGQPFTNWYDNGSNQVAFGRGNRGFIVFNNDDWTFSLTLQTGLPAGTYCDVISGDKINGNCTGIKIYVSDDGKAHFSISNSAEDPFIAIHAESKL

[2] = tested on: PANC-1; experiment: Induction of ROS production in high glucose-induced human PANC-1 cells assessed as maximum fluorescence intensity at 10 uM incubated for 30 mins DCFDA-staining based flow cytometry analysis (reference value: 15.09); type: functional; conditions: 0.5 h
[3] = molecular target: Alpha-glucosidase (Saccharomyces cerevisiae S288c, UniProt P53341+P38158+P07265); experiment: Inhibition of yeast Alpha glucosidase 4-nitrophenyl-alpha-D-glucopyranoside incubated for 15 to 20 mins by Bio-rad microplate reader analysis; type: protein assay
[4] = tested on: PANC-1; experiment: Cytotoxicity against human PANC-1 cells assessed as inhibition of cell growth; type: functional, cell-based
[5] = molecular target: T2, Alpha-amylase (Sus scrofa domesticus, UniProt Q7M328); experiment: Inhibition of porcine pancreatic Alpha-amylase using starch as substrate preincubated for 10 mins followed by substrate addition and measured after 15 mins by Bio-rad microplate reader analysis
T2 sequence (Q7M328 whole entry): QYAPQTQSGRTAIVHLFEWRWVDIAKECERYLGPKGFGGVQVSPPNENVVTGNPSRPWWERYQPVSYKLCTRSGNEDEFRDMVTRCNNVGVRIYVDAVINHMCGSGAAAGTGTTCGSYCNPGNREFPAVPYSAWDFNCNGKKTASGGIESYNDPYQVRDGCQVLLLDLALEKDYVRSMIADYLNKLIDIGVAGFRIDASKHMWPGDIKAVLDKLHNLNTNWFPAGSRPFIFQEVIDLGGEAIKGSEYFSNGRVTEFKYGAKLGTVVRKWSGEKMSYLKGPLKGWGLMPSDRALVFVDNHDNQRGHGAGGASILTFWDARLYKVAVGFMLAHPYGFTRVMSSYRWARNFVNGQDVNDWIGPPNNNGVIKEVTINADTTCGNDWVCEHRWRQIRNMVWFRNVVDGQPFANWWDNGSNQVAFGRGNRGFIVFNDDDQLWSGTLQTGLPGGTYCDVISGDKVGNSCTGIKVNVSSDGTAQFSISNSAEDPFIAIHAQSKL

[6] = Antioxidant activity assessed as DPPH radical scavenging activity measured for 30 mins by spectrophotometric analysis; type: functional
[7] = Inhibition of Alpha glucosidase (unknown origin); set-up: species or system Homo sapiens
[8] = Toxicity in streptozotocin-induced Wistar rat assessed as change in blood lymphocyte count at 10 mg/kg, po measured up to 35 days; type: organism-based; conditions: in vivo, 840 h, time < 35 day
[9] = tested on: Rattus norvegicus; experiment: Antidiabetic activity against streptozotocin-induced Wistar rat assessed as decrease in HDL level at 10 mg/kg, po measured upto 35 days; type: functional, organism-based; conditions: time <= 35.0 day
[10] = tested on: Rattus norvegicus; experiment: Antidiabetic activity against Wistar rat assessed as effect on glutathione level at 10 mg/kg, po measured upto 35 days; type: functional, organism-based; conditions: time <= 35.0 day
[11] = tested on: Rattus norvegicus; experiment: Antidiabetic activity against streptozotocin-induced Wistar rat assessed as increase in IL1-beta level in Pancreas at 10 mg/kg, po measured upto 35 days; type: functional, organism-based; conditions: time <= 35.0 day
[12] = tested on: Rattus norvegicus; experiment: Antidiabetic activity against streptozotocin-induced Wistar rat assessed as increase in serum ALP level at 10 mg/kg, po measured upto 35 days; type: functional, organism-based; conditions: time <= 35.0 day
[13] = tested on: Rattus norvegicus; experiment: Antidiabetic activity against streptozotocin-induced Wistar rat assessed as decrease in SOD level at 10 mg/kg, po measured upto 35 days; type: functional, organism-based; conditions: time <= 35.0 day
[14] = tested on: Rattus norvegicus; experiment: Antidiabetic activity against streptozotocin-induced Wistar rat assessed as increase in PPAR-gamma level at 10 mg/kg, po measured upto 35 days by ELISA analysis; type: functional, organism-based; conditions: time <= 35.0 day
[15] = tested on: Rattus norvegicus; experiment: Antidiabetic activity against streptozotocin-induced Wistar rat assessed as effect on blood glucose level at 10 mg/kg, po measured on day 4; type: functional, organism-based; conditions: time 4.0 day
[16] = tested on: Rattus norvegicus; experiment: Antidiabetic activity against streptozotocin-induced Wistar rat assessed as decrease in blood glucose level at 10 mg/kg, po measured at 30 mins by oral glucose test; type: functional, organism-based
[17] = Toxicity in streptozotocin-induced Wistar rat assessed as decrease in glomeruli shrinkage in kidney at 10 mg/kg, po measured up to 35 days; type: organism-based; conditions: in vivo, 840 h, time < 35 day
[18] = Toxicity in streptozotocin-induced Wistar rat assessed as morphological changes in liver at 10 mg/kg, po measured up to 35 days; type: organism-based; conditions: in vivo, 840 h, time < 35 day
[19] = Toxicity in Wistar rat assessed as decrease in body weight at 10 mg/kg, po measured on day 35; type: organism-based; conditions: in vivo, 840 h, time 35 day
[20] = tested on: Rattus norvegicus; experiment: Antidiabetic activity against streptozotocin-induced Wistar rat assessed as effect on blood glucose level at 10 mg/kg, po measured on day 1; type: functional, organism-based; conditions: time 1.0 day
[21] = tested on: Rattus norvegicus; experiment: Antidiabetic activity against streptozotocin-induced Wistar rat assessed as decrease in MDA level at 10 mg/kg, po measured upto 35 days; type: functional, organism-based; conditions: time <= 35.0 day
[22] = tested on: Rattus norvegicus; experiment: Antidiabetic activity against streptozotocin-induced Wistar rat assessed as decrease in triglyceride level at 10 mg/kg, po measured upto 35 days; type: functional, organism-based; conditions: time <= 35.0 day
[23] = Toxicity in Wistar rat assessed as decrease in body weight at 10 mg/kg, po measured on day 14; type: organism-based; conditions: in vivo, 336 h, time 14 day
[24] = Homo sapiens, PANC-1, read-out: IC50

Compound	Flu intensity [2]	IC50 [3] [µM]	IC50 [4, 24] [µM]	IC50 ([5]; read-out: IC50) [µM]	IC50 ([6]; read-out: IC50) [µM]	further results
N#Cc1ccccc1-c1ccc(N2C(=O)S/C(=C\c3ccccc3Oc3ccccc3)C2=O)cc1						IC50 [1]: 0.13 µg/mL (≈ 0.274 µM)
O=C(O)CN1C(=O)S/C(=C\c2cn(-c3ccccc3)nc2-c2ccc([N+](=O)[O-])cc2)C1=O						IC50 [1]: 4.08 µg/mL (≈ 9.06 µM)
COc1cc(OC)c(OC)cc1/C=C1\SC(=O)N(Cc2cccc([N+](=O)[O-])c2)C1=O	25238	54.01	203	30.8	30.6	
COc1ccc(/C=C2\SC(=O)N(Cc3cccc([N+](=O)[O-])c3)C2=O)cc1O	72737	32.94	215	28	70.9	
C=CCN1C(=O)S/C(=C\c2ccc(Cl)cc2Cl)C1=O						IC50 [1]: 43.85 µg/mL (≈ 140 µM); IC50 [7]: 18.19 µg/mL (≈ 57.9 µM)
O=C1S/C(=C\c2ccc(-c3ccccc3)cc2)C(=O)N1Cc1cccc([N+](=O)[O-])c1	23092	15.37	126	82.2	32.6	
O=C1S/C(=C\c2c[nH]c3ccccc23)C(=O)N1Cc1ccccc1	22679	25.76	191	82.2	30.2	
COc1ccc(OC)c(/C=C2\SC(=O)N(Cc3cccc([N+](=O)[O-])c3)C2=O)c1	58455	201	62.6	48.1	41.8	
COc1ccc(/C=C2\SC(=O)N(Cc3cccc([N+](=O)[O-])c3)C2=O)cc1	84568	57.1	104	118	325	
C[C@H]1O[C@H](O[C@H]2[C@H](O)[C@@H](O)[C@@H](O[C@H]3[C@H](O)[C@@H](O)C(O)O[C@@H]3CO)O[C@@H]2CO)[C@H](O)[C@@H](O)[C@@H]1N[C@H]1C=C(CO)[C@@H](O)[C@H](O)[C@H]1O (some centres undefined) [ACARBOSE]	1455					IC50 ([4]; panc-1): Not Active; IC50 [6]: Not Active
COc1cccc(/C=C2\SC(=O)N(Cc3cccc([N+](=O)[O-])c3)C2=O)c1OC	2271	153.1	179	79.1	13.6	
O=C1S/C(=C\c2ccc(O)cc2)C(=O)N1Cc1cccc([N+](=O)[O-])c1	35829	29.28	32	42.9	34.9	
COc1ccc(/C=C2\SC(=O)N(Cc3cccc([N+](=O)[O-])c3)C2=O)c(OC)c1	37797	65.52	166	30.2	32.1	
O=C1O[C@H]([C@@H](O)CO)C(O)=C1O [ASCORBIC ACID]					25.1	IC50 [5]: Not Active
CN(C)c1ccc(/C=C2\SC(=O)N(Cc3cccc([N+](=O)[O-])c3)C2=O)cc1	76992	16.9	194	81.1	211	
COc1cc(/C=C2\SC(=O)N(Cc3cccc([N+](=O)[O-])c3)C2=O)cc(OC)c1OC		39.68	195	39.3	68	
O=C1S/C(=C\c2cccc(Cl)c2Cl)C(=O)N1Cc1cccc([N+](=O)[O-])c1	65017	54	179	30.4	44.6	
COc1cc(OC)c(/C=C2\SC(=O)N(Cc3cccc([N+](=O)[O-])c3)C2=O)c(OC)c1	22596	11.37	178	44.6	28.4	
O=C1S/C(=C\c2ccc3c(c2)OCO3)C(=O)N1Cc1cn(-c2ccccc2Cl)nn1						IC50 [7]: 0.1 µg/mL (≈ 0.227 µM)
O=C1S/C(=C\c2c(Cl)cccc2Cl)C(=O)N1Cc1cccc([N+](=O)[O-])c1	25204	37.94	123	25.1	31.1	
CCc1ccc(CCOc2ccc(CC3SC(=O)NC3=O)cc2)nc1 (centres undefined) [PIOGLITAZONE]						Activity [8]: Non-Toxic; Activity [9]: Active; Activity [10]: Active; Activity [11]: Active; Activity [12]: Active; Activity [13]: Active; Activity [14]: Active; Activity [15]: Active; Activity [16]: Active; Activity [17]: Toxic; Activity [18]: Non-Toxic; Activity [19]: Toxic; Activity [20]: Active; Activity [21]: Active; Activity [22]: Active; Activity [23]: Non-Toxic
O=C1S/C(=C\c2ccc(Cl)cc2)C(=O)N1Cc1cccc([N+](=O)[O-])c1		22.61	94.9	44.7	32.2	
COc1cc(/C=C2\SC(=O)N(Cc3cccc([N+](=O)[O-])c3)C2=O)ccc1O	66221	19.73	190	40.5	38.1	
